Values of other authors as cited in patent US20250302750A1, “PHARMACEUTICAL COMPOSITION OF BEMPEDOIC ACID” (Renata Pharmaceuticals (Ireland) Ltd, priority 2022, published 2025).

Assays:
[1] = solid state; per US 20180338922

- Solubility in water: poorly soluble
- Flow characteristics [1]: poor flow characteristics
- Stickiness [1]: very sticky
SMILES: CC(C)(CCCCCC(O)CCCCCC(C)(C)C(=O)O)C(=O)O [Bempedoic acid]
